According to the CheMixHub ionic liquid set:

Assay: xn = mol fraction of the nth substance listed
Conditions: 100 kPa; for electrical conductivity: frequency 0.001 MHz

CCCCCC[N+]1(C)CCCC1.O=S(=O)([N-]S(=O)(=O)C(F)(F)F)C(F)(F)F + Cc1ccccc1
Conditions | viscosity [mPa·s]
293.15 K, x2 = 0.3938 | 37.27
293.15 K, x2 = 0.7993 | 4.124
303.15 K, x2 = 0.5961 | 11.17
308.15 K, x2 = 0.29 | 30.33
308.15 K, x2 = 0.7993 | 3.15
313.15 K, x2 = 0 | 51

CCCC[N+](CCCC)(CCCC)Cc1ccccc1.[Cl-] + NC(=O)CC[C@H](N)C(=O)O + O
Conditions | electrical conductivity, 293.15 K [S/m] | electrical conductivity, 298.15 K [S/m] | electrical conductivity, 303.15 K [S/m] | electrical conductivity, 308.15 K [S/m] | electrical conductivity, 313.15 K [S/m] | viscosity, 293.15 K [mPa·s] | viscosity, 298.15 K [mPa·s] | viscosity, 303.15 K [mPa·s] | viscosity, 308.15 K [mPa·s] | viscosity, 313.15 K [mPa·s]
x2 = 0.0001802, x1 = 1.802e-05 | 0.0331 | 0.0352 | 0.0382 | 0.041 | 0.0452 | 0.961 | 0.921 | 0.884 | – | –
x2 = 0.0001803, x1 = 5.405e-05 | 0.0419 | 0.0441 | 0.0463 | 0.0496 | 0.0536 | 0.969 | 0.929 | 0.888 | – | –
x2 = 0.0001804, x1 = 9.008e-05 | 0.0513 | 0.0542 | 0.0582 | 0.0612 | 0.0654 | 0.98 | 0.939 | 0.9 | – | –
x2 = 0.0004504, x1 = 1.801e-05 | 0.0408 | 0.0453 | 0.0486 | 0.0523 | 0.0553 | 0.969 | 0.93 | 0.893 | 0.858 | 0.803
x2 = 0.0004507, x1 = 5.403e-05 | 0.0492 | 0.0543 | 0.057 | 0.0597 | 0.0642 | 0.978 | 0.938 | 0.896 | 0.863 | 0.808
x2 = 0.000451, x1 = 9.005e-05 | 0.0592 | 0.0641 | 0.067 | 0.069 | 0.0728 | 0.99 | 0.949 | 0.909 | 0.869 | 0.817
x2 = 0.0007205, x1 = 1.801e-05 | 0.0479 | 0.0557 | 0.0582 | 0.0614 | 0.0662 | 0.977 | 0.939 | 0.902 | 0.867 | 0.812
x2 = 0.0007209, x1 = 5.402e-05 | 0.0619 | 0.0683 | 0.0702 | 0.0724 | 0.0764 | 0.987 | 0.947 | 0.906 | 0.872 | 0.818
x2 = 0.0007213, x1 = 9.003e-05 | 0.0692 | 0.0768 | 0.0774 | 0.0796 | 0.0867 | 1 | 0.96 | 0.919 | 0.88 | 0.827
x2 = 0.0009904, x1 = 1.8e-05 | 0.0551 | 0.064 | 0.0692 | 0.071 | 0.0769 | 0.985 | 0.948 | 0.912 | 0.877 | 0.823
x2 = 0.000991, x1 = 5.4e-05 | 0.0713 | 0.0784 | 0.0819 | 0.0821 | 0.0806 | 0.996 | 0.957 | 0.917 | 0.882 | 0.827
x2 = 0.0009916, x1 = 9e-05 | 0.0768 | 0.0871 | 0.0876 | 0.0906 | 0.1 | 1.01 | 0.97 | 0.929 | 0.891 | 0.838
x2 = 0.00126, x1 = 1.8e-05 | 0.0646 | 0.0756 | 0.079 | 0.0819 | 0.0865 | 0.994 | 0.956 | 0.921 | 0.887 | 0.833
x2 = 0.001261, x1 = 5.399e-05 | 0.0809 | 0.0902 | 0.0923 | 0.0943 | 0.103 | 1.005 | 0.967 | 0.926 | 0.894 | 0.838
x2 = 0.001262, x1 = 8.998e-05 | 0.0911 | 0.098 | 0.0989 | 0.101 | 0.113 | 1.021 | 0.98 | 0.939 | 0.901 | 0.849
x2 = 0.00153, x1 = 1.799e-05 | 0.0733 | 0.0847 | 0.0896 | 0.0903 | 0.0994 | 1.002 | 0.965 | 0.929 | 0.897 | 0.843
x2 = 0.001531, x1 = 5.397e-05 | 0.0868 | 0.0975 | 0.103 | 0.105 | 0.116 | 1.014 | 0.977 | 0.936 | 0.904 | 0.849
x2 = 0.001532, x1 = 8.995e-05 | 0.099 | 0.106 | 0.108 | 0.109 | 0.119 | 1.029 | 0.99 | 0.95 | 0.912 | 0.86

C[N+](C)(CCO)CCOCCO.[Cl-] + NC(N)=O
x1 = 0.5
Conditions | viscosity [mPa·s]
283.15 K | 19700
288.15 K | 10900
293.15 K | 5978
298.15 K | 3500
303.15 K | 2189
308.15 K | 1389
313.15 K | 903
318.15 K | 616
323.15 K | 424
328.15 K | 305
333.15 K | 221
338.15 K | 166
343.15 K | 126
348.15 K | 97.9
353.15 K | 77.4
